CC(=O)N(CC(O)CO)c1c(I)c(C(=O)NCC(O)CO)c(I)c(C(=O)NCC(O)CO)c1I (stereo not given)
solubility (mole fraction)
Settings	283.15 K	288.15 K	293.15 K	298.15 K	303.15 K	308.15 K	313.15 K	318.15 K	323.15 K
in 1,4-dioxane	–	5.7e-05	6.9e-05	8.3e-05	0.0001	0.000121	0.000145	0.000174	0.000208
in 2-butanone	0.000148	0.000178	0.000211	0.000255	0.000301	0.000358	0.000425	0.00049	0.000566
in DMSO	–	–	0.000293	0.000357	0.000428	0.00051	0.000624	0.000737	0.000869
in acetone	0.000174	0.000209	0.000256	0.000308	0.000371	0.000443	0.000526	0.00062	0.000741
in acetonitrile	8.47e-05	0.000101	0.000123	0.000146	0.000175	0.00021	0.00025	0.000298	0.000354
in cyclohexane	9.38e-06	1.22e-05	1.55e-05	2e-05	2.51e-05	3.14e-05	3.89e-05	4.81e-05	5.96e-05
in ethanol	0.00113	0.0013	0.00148	0.00169	0.00192	0.00217	0.00244	0.00274	0.00306
in ethyl acetate	0.000126	0.00015	0.00018	0.000215	0.000256	0.000301	0.000355	0.000414	0.000481
in isopropanol	0.000389	0.000456	0.000555	0.000674	0.000806	0.000966	0.00115	0.00137	0.00165
in n-butanol	0.000235	0.000287	0.000342	0.000416	0.0005	0.000601	0.000723	0.000866	0.00103
in n-propanol	0.000715	0.000804	0.000911	0.00104	0.00119	0.00137	0.00156	0.00181	0.0021
in toluene	2.5e-05	3.22e-05	4.06e-05	5.12e-05	6.28e-05	7.57e-05	9.19e-05	0.000112	0.000134

— BigSolDB 2.1
